Laboratory results taken from US4542153A, “Methods for changing calcium metabolism within the cells of a mammal” (The Ohio State University Research Foundation, priority 1983, dated 1985).
Where two headings read alike, the source gives them in different places. One block for each compound: values may come before it.

Columns and labels:
[1] = test system: thoracic aorta strips contracted with norepinephrine; experiment: Vasodilator activity: norepinephrine-contracted aortic strips; format: cell-based, male Sprague-Dawley rats; settings: for IC50: read-out: IC50 (mean and range of SEM) Norepinephrine; for comparative vasodilator activity, norepinephrine-treated tissue: norepinephrine-treated aortic tissue; for relaxation of the aortic tissue: norepinephrine- or KCl-treated tissue
Source text: (§1) Pr-MDI, bu-MDI, Q-bu-MDI and the compounds of Formulae IIIA, IIIB and IVA having the two R1 groups together forming a methylene group, each R3 a methyl group and R2 an n-propyl group or n-butyl group (the compounds of Formula III are hereinafter abbreviated as sat-pr-MDI and sat-bu-MDI respectively, reference being made where necessary to the cis isomer of Formula III A or the trans isomer of Formula III B while the compounds of Formula IV are similarly referred to as cis sat-Q-pr-MDI and cis sat-Q-bu-MDI) were tested for vasodilator activity by the method of R. F. Furchgott and S. Bhadrakom, J. P. Pharmacol. Ex. Ther., 108, 129-143 (1953).
(§2) The vasodilator activity tests were conducted on male Sprague-Dawley rats, obtained from Harlan Industries, Inc., Cumberland, Indiana. The rats, weight 250-300 g., were sacrified by cervical dislocation and a 2.5 cm. segment of the thoracic aorta was removed and rinshed in physiological buffer. Each aortic segment was cleaned of connective tissue and cut spirally two yield to strips, each 3 by 15 mm. Each strip was mounted isometrically under a tension of 1 g in a 10 ml. tissue bath thermostatically maintained at 37° C. and containing a normal physiological solution aerated with a 95% oxygen/5% carbon dioxide mixture. Forces generated by the strip were monitored using a Grass FT03 isometric transducer coupled to a Grass module 7D polygraph recorder, both the transducer and the recorder being obtained from Grass Instrument Co., of Quincy, Mass.
(§3) After the aortic tissue had been allowed to equilibriate for 1-1.5 hours in the normal physiologic solution, tissue contraction was induced by introducing either 10^-7 M norepinephrine or 40mM potassium chloride buffer to the tissue bath.
(§4) To avoid interference by loss of tension due to time dependent tissue fatigue, separate preliminary experiments were performed to determine the degree of tissue relaxation due to such fatigue and the value of the control tension generated by norepinephrine or potassium chloride prior to the addition of the test compounds was adjusted whenever the duration of the experiment was such that fatigue could be expected to cause more than a 6% loss of tension. […] All concentrations mentioned hereinafter represent the final concentration of the test compound after dilution in the tissue bath.
(§5) The figures of concentration against percent response data obtained from each aortic tissue were transformed to its appropriate probit value and IC50 values were then estimated using linear regression analysis. The normal physiological solution contained 6.9 g/l of sodium chloride, 0.35 g/l of potassium chloride, 0.11 g/l of magnesium chloride hexahydrate, 0.138 g/l of sodium dihydrogen phosphate, 2.1 g/l of sodium bicarbonate, 0.01 g/l of EDTA, 0.368 g/l of calcium chloride dihydrate and 2.0 g/l of dextrose. The high potassium buffers were obtained by substituting potassium chloride for sodium chloride on an equimolar basis to maintain tonicity.

[2] = test system: thoracic aorta strips contracted with potassium chloride; experiment: Vasodilator activity: potassium chloride-contracted aortic strips; format: cell-based, male Sprague-Dawley rats; settings: for IC50: read-out: IC50 (mean and range of SEM) KCl; for comparative vasodilator activity, potassium chloride-treated tissue: KCl-treated aortic tissue
Source text: as §1, §2, §3, §4, §5

[3] = test system: calcium-induced arrhythmias in rats; experiment: Calcium-induced arrhythmias (CaCl2 injected i.v. into anesthetized rats)
Source text: The experimental method used was that described in Lynch J. J., Rahwan R. G., Witiak D. T.: Effects of 2-substituted-3-dimethylamino-5,6-methylenedioxyindenes on calcium-inducedarrhythmias, J. Cardiovasc. Pharmacol. 3: 49-60 (1981). Male Sprague-Dawley rats weighing 180-250 grams were anesthetized with sodium pentobarbital and a cannula was inserted into the left jugular vein for drug administration. Electrocardiograph equipment was connected to the rat and the lead II was continuously monitored. The compound under test, dissolved in 5% dextrose solution, was administered into the jugular vein of anesthetized rats over a 40 second period. Ten minutes after this treatment, an acute dose of 1 ml/kg of a 10% CaCl2.2H2 O solution was injected into the jugular vein over a period of 10 seconds. The arrhythmias resulting from the calcium administration were graded according to the following criteria: (a) initial change in heart rate following calcium administration; (b) incidences of sinoatrial block, atrioventricular block, ectopic beats, and ventricular flutter and fibrillation; (c) time required for reversion to control ECG; and (d) incidence of mortality.

[4] = test system: chloroform anoxia arrhythmia in mice; experiment: Chloroform Anoxia Assay (chloroform-induced ventricular fibrillation); format: in vivo, Female Swiss albino mice; settings: for ED50: i.p., 10 min before chloroform, table: mean values and 95% confidence limits
Protocol: The same four compounds were tested for their ability to protect mice from chloroform anoxia by the classical chloroform inhalation procedure described in Lawson J. W.: Antiarrhythmic activity of some isoquinoline derivatives determined by a rapid screening procedure in the mouse, J. Pharmacol. Exp. Ther. 160: 22-31, (1968). In this method, chloroform inhalation leading to respiratory arrest produces ventricular fibrillation. Female Swiss albino mice procured from Laboratory Supply Company, Indianapolis, Indiana, weighing 16-22 g, were pretreated intraperitoneally with the compound under test dissolved in a 5% dextrose solution 10 minutes before exposure to chloroform in a closed container containing chloroform-saturated cotton. The mice were removed from the chloroform atmosphere immediately after respiratory arrest and the electrocardiograph lead II monitored. The ED 50 and 95% confidence limits calculated for the anti-arrhythmic agents by the standard method of Litchfield and Wilcoxon.

mice = experiment: Toxicity Tests (intraperitoneal LD50); format: in vivo; settings: i.p., table: mean values and 95% confidence limits
isolated left atria = experiment: Effects on isolated guinea pig atria: electrically driven left atria; format: cell-based
Source text: The effects of pr-MDI, bu-MDI and Q-bu-MDI on the mechanical and electrical behavior of isolated guinea pig atria were investigated by the method of H. Nawrath, J. Pharmacol. Exp. Ther., 16, 176-182 (1980). The compounds were investigated over the concentration range of 10^-8 to 3×10^-4 M.
English short-haired guinea pigs, supplied by Carr Animal Supply, of Powell, Ohio, weighing 300-600 g. were killed by a blow on the head and both atria of the animal were quickly dissected out and suspended in a water-jacketed organ bath containing Krebs-Henseleit solution through which a 95% oxygen/5% carbon dioxide mixture was bubbled at 32° C. The solution contained 6.92 g/l of sodium chloride, 0.35 g/l of potassium chloride, 0.29 g/l of magnesium […] heptahydrate, 0.3 g/l of calcium chloride dihydrate, 0.16 g/l of potassium dihydrogen phosphate, 2.1 g/l of sodium bicarbonate and 2.1 g/l of dextrose. The contractile force generated by the isolated artria was recorded isometrically under a 500 mg. preload using a Narco Biosystems force transducer connected to a physiograph DMP-4B recorder, both the transducer and the recorder being obtained from E & M Instrument Co. of Houston, Texas.
The isolated left atria were electrically driven by square wave impulses of 3 milliseconds duration at a frequency of 3 Hz. and a voltage of twice the threshold voltage, delivered by a Grass S9 stimulator obtained from Grass Instrument Co., of Quincy, Massachusetts. Two platinum electrodes were used for the stimulation, the anode being in direct contact with the atrial tissue while the cathode had the form of a ring suspended 2.5 centimeters above the anode. Before redetermination of the threshold voltage and generation of a predrug (control) frequency-force profile over the range of 1-5 Hz., an equilibriation time of one hour was allowed. The system was then re-equilibriated at 3 Hz. and twice the threshold voltage as before, then one cumulative dose-response curve of contractile force for one test compound was obtained, followed immediately by redetermination of the threshold voltage and the generation of a post-drug frequency-force profile.
A paired Student's t-test was used to compare predrug and postdrug threshold voltages for each left atrial preparations as well as to compare developed tension at each frequency in the profile of each left atrial preparation. P values of less than 0.05 were considered statistically significant.

[5] = tested acutely and subchronically; earlier published work; cited from earlier work
[6] = rat aorta contracted with 10^-7 M norepinephrine
[7] = rat aorta contracted with 40 mM potassium chloride

IC50 [1, 6]: 281 µM
IC50 [2, 7]: 175 µM
SMILES: CCCC[C@@H]1Cc2cc3c(cc2[C@@H]1[N+](C)(C)C)OCO3 (relative stereo) [cis sat-Q-bu-MDI]

IC50 [1, 6]: 1020 µM
IC50 [2, 7]: 871 µM
SMILES: CCC[C@@H]1Cc2cc3c(cc2[C@@H]1[N+](C)(C)C)OCO3 (relative stereo) [cis sat-Q-pr-MDI, cis-2-propyl-5,6-methylenedioxyindane-1-trimethylammonium iodide]

SMILES: CCCC[C@@H]1Cc2cc3c(cc2[C@@H]1N(C)C)OCO3 (relative stereo) [cis sat-bu-MDI, 2-butyl-5,6-methylenedioxyindane-1-dimethylammonium chloride]
IC50 ([1]; Rattus norvegicus): 37.9 µM
comparative vasodilator activity, norepinephrine-treated tissue [1]: greater activity on norepinephrine treated tissue than the corresponding butyl compound of Formula I
comparative vasodilator activity, potassium chloride-treated tissue [2]: substantially the same activity
IC50 ([2]; Rattus norvegicus): 17.4 µM

SMILES: CCC[C@@H]1Cc2cc3c(cc2[C@@H]1N(C)C)OCO3 (relative stereo) [cis sat-pr-MDI, 2-propyl-5,6-methylenedioxyindane-1-dimethylammonium chloride]
IC50 ([1]; Rattus norvegicus): 59.4 µM
comparative vasodilator activity, norepinephrine-treated tissue [1]: substantially the same activity as the corresponding unsaturated propyl compound of Formula I
comparative vasodilator activity, potassium chloride-treated tissue [2]: slightly lower activity
IC50 ([2]; Rattus norvegicus): 30 µM

SMILES: CCCC[C@H]1Cc2cc3c(cc2[C@@H]1N(C)C)OCO3 (relative stereo) [trans sat-bu-MDI]
IC50 ([1]; Rattus norvegicus): 151 to 173 µM
IC50 ([2]; Rattus norvegicus): 31.1 µM

SMILES: CCC[C@H]1Cc2cc3c(cc2[C@@H]1N(C)C)OCO3 (relative stereo) [trans sat-pr-MDI, 2-propyl-5,6-methylenedioxyindane-1-dimethylammonium chloride]
IC50 ([1]; Rattus norvegicus): 383 µM
IC50 ([2]; Rattus norvegicus): 98.9 µM

SMILES: CCCC1=Cc2cc3c(cc2C1[N+](C)(C)C)OCO3.[I-] (stereo not drawn) [Q-pr-MDI, 2-propyl-5,6-methylenedioxyindene-1-trimethylammonium iodide]
relaxation of the aortic tissue [1]: relaxed the aortic tissue
comparative vasodilator activity, norepinephrine-treated tissue [1]: less active in vitro than their tertiary analogs
IC50 [1, 6]: 382 µM
IC50 [2, 7]: 547 µM

SMILES: NC[C@H](O)c1ccc(O)c(O)c1 [norepinephrine, reference compound]
control tension as percent of the maximum inducible contraction ([1]; 10^-7 M norepinephrine): 85.1%
control tension generated ([1]; 10^-7 M norepinephrine, rat aortic strip): 0.98 ± 0.03 g

SMILES: [Cl-].[K+] [potassium chloride, reference compound]
control tension as percent of the maximum inducible contraction ([2]; 40 mM potassium chloride): 84.2%
control tension generated ([2]; 40 mM potassium chloride, rat aortic strip): 0.89 ± 0.05 g

SMILES: CCCC1=Cc2cc3c(cc2C1N(C)C)OCO3.Cl (stereo not drawn) [pr-MDI, 2-propyl-5,6-methylenedioxyindene-1-dimethylammonium chloride, reference compound]
potency and safety against calcium-induced arrhythmia versus verapamil ([3]; earlier work of applicants): more potent and safer then verapamil
concentration effective against calcium-induced arrhythmias ([3]; i.v., 10 min before CaCl2): 3.75 mg/kg
deleterious side effects ([3]; i.v., Q-bu-MDI at 0.5 mg/kg, pr-MDI and bu-MDI at 3.75 mg/kg): without deleterious side effects
Therapeutic Index (LD50/ED50) ([4]; ED50 from chloroform anoxia, LD50 i.p.): 2.7
potency against chloroform/anoxia-induced arrhythmia versus quinidine ([4]; earlier work of applicants): as potent as quinidine
ED50 ([4]; n = 40, 10 min): 68 mg/kg
ED50 ([4]; n = 40, listed as Pr--MDI, 10 min): 68.0 mg/kg
Antiarrhythmic Potency ([4]; quinidine = 1.00, chloroform anoxia): 0.99
LD50 (mice): 185 mg/kg
effect on frequency-force profile/relation of the stimulated left atrium (isolated left atria; 3×10^-4 M): virtually identical to that of the butyl homolog
overall effect on mechanical and electrical behavior of atria (isolated left atria; 10^-8 to 3×10^-4 M): generally similar to those of bu-MDI
relaxation of the aortic tissue [1]: relaxed the aortic tissue
comparative vasodilator activity, norepinephrine-treated tissue [1]: considerably more active than Q-pr-MDI
IC50 [1, 6]: 78.2 µM
IC50 [2, 7]: 21.4 µM
toxicity [5]: remarkable lack of toxicity

SMILES: C=C[C@H]1C[N@@]2CC[C@H]1C[C@@H]2[C@@H](O)c1ccnc2ccc(OC)cc12 [quinidine, reference compound]
effect on the S wave ([3]; 8 mg/kg (minimum effective concentration)): severely deepened the S wave
ED50 ([4]; Mus musculus, ip, 10 min, n = 40, read-out: ED50): 67 mg/kg
